Read-outs that look alike come from different tables or passages of the source.
Columns and labels:
[1] = tested on: whole brains of normal mice; test: Bulk RNA-Seq of whole brains of normal mice; assay type: in vivo; conditions: FC ≥1.3, FDR <0.05
Description: (§1) Trametinib treatment: Trametinib (Medchemexpress, Monmouth Junction, N.J.) was micronized and suspended in the vehicle containing 5% mannitol, 1.5% hydroxypropyl methylcellulose and 0.2% sodium lauryl sulfate. For pharmacokinetic analysis, 0.05, 0.2 and 0.8 mg/kg of trametinib were orally administered to 7-week-old normal mice (ICR, n=5 per group) as a single administration. […] For studies on the change in pERK expression in normal mice and whole cell RNA sequencing study, 0.1 mg/kg/day of trametinib (in 4% DMSO+96% corn oil) was orally administered to 6-week old C57BL/6 mice (n=3 per group). Mice were sacrificed after 1, 2, 3, or 4 weeks of administration. 5XFAD mice (male, n=7˜10 per group) were divided into vehicle and trametinib treated groups. 12-month old mice received vehicle or 0.1 mg/kg of trametinib for 1 month by oral gavage once a day (These mice are referred to as “13-month old 5XFAD mice” in the Examples). […] Blood was obtained after completion of treatment.
Whole cell RNA sequencing: RNA was isolated from mice whole brain, and cDNA libraries for RNA sequencing were prepared using the TruSeq Stranded mRNA Prep Kit (Illumina, San Diego, Calif.) according to the manufacturer's guidelines (1). The libraries were sequenced on the Illumina Nextseq500 platform, and the reads were mapped to the reference Mouse mm10 genome using Tophat v2.0.13. […] To define differentially expressed genes (DEG), we set up a stringent statistic cutoff of fold change (FC) of ≥1.3 and a false discovery rate (FDR)<0.05. […] Gene ontology was performed with the Gene Ontology program of the gene ontology consortium. Heatmap analysis was performed by R studio using the DEG list related with synapse, neurogenesis and lysosome.

SH-SY5Y cells = test: Western blot of SH-SY5Y cell lysates; assay type: cell-based
Description: Cell culture: SH-SY5Y neuroblastoma cells were cultured at 37° C., 5% CO2., in Dulbecco's Modified Eagle Medium/Ham's F-12 nutrient mixture (DMEM/F12) (Invitrogen, Carlsbad, Calif.) supplemented with 10% heat-inactivated fetal bovine serum containing 100 units/ml penicillin, 100 μg/ml streptomycin. Primary cortical neuron cultures were derived from embryo day 18 (E18) from ICR mice. The dissociated cells were plated on glass cover slips coated with poly-D-lysine in Neurobasal medium supplemented with 2% B27 (Invitrogen), 100 units/ml penicillin, 100 μg/ml streptomycin, and 2 mM L-glutamine. Primary NSCs from normal mice were isolated from the subventricular zone (SVZ) of 8 week-old C57BL/6 mice brain. NSCs from adult Tg2576 mice brain were obtained from Seoul National University Hospital. The neurospheres were cultured as previously described (M. Y. Kim, B. S. Moon, K. Y. Choi, Isolation and maintenance of cortical neural progenitor cells in vitro. Methods Mol Biol 1018, 3-10 (2013)). For neurosphere culture from normal mice, the cells were dissociated from brain tissue and grown in N2 medium in 25 cm^2 flasks (SPL, Gyeonggi-do, Korea) in suspension. bFGF (20 ng/ml, Peprotech, Princeton, N.J.) and human EGF (20 ng/ml, Peprotech) were added to the media to allow the cells to form neurospheres. For analyses, NSCs were cultured as a monolayer. For differentiation of NSCs, the neurospheres were dissociated with TrypLE (Invitrogen), plated on 15 μg/ml poly-L-ornithine-(Sigma-Aldrich, St. Louis, Mo.) and 10 μg/ml fibronectin (Gibco)-coated plates, and cultured in bFGF- and EGF-depleted N2 medium for 2 days. For neurosphere culture from Tg2576 mice, the cells were grown in DMEM/F12 supplemented with B27 supplements in 75 cm^2 flasks (SPL) in suspension. bFGF (10 ng/ml) and human EGF (10 ng/ml) were added to the media to allow the cells to form neurospheres. For inducing differentiation and AP expression, the neurospheres were dissociated with pipetting, plated on 15 μg/ml poly-L-ornithine- and 10 μg/ml fibronectin (Gibco)-coated plates, and cultured in bFGF- and EGF-depleted medium for 2 days.
(§2) Lysates were centrifuged at 13,000 rpm for 20 min at 4° C., and the protein content in the supernatant was determined using the Bradford assay (Bio-rad, Hercules, Calif.). For subcellular fractionation, cells were lysed with lysis buffer (250 mM Sucrose, 20 mM HEPES, pH 7.4, 10 mM KCl, 1.5 mM MgCl2, 1 mM EGTA, 1 mM EDTA, 1 mM DTT) containing protease inhibitor for 30 min on ice, followed by centrifugation at 720 g for 5 min at 4° C. Supernatants were centrifuged at 15,000 rpm for 10 min at 4° C., and the resulting supernatant was used as the cytosol fraction. After centrifugation at 720 g for 5 min, pellets were washed with lysis buffer and dissolved in nuclear lysis buffer (50 mM Tris HCl, pH 8.0, 150 mM NaCl, 1% NP40, 0.5% sodium deoxycholate, 0.1% SDS, 10% glycerol) as the nuclear fraction. Protein from each sample was subjected to 8%˜15% SDS-PAGE, and the resolved proteins were transferred to nitrocellulose or polyvinylidene fluoride membrane. The membranes were blocked with 5% nonfat milk powder in Tris-buffered saline/Tween 20 (TBST) for 1 h at room temperature, then incubated with anti-phospho-ERK (Cell signaling), anti-ERK (Cell signaling), anti-LAMP1 (Abcam), anti-LC3 (Cell signaling), anti-cathepsin B (Cell signaling), anti-p62 (Cell signaling), anti-p62 (5114, Cell signaling), anti-phospho-mTOR (5536, Cell signaling), anti-mTOR (2983, Cell signaling), anti-phospho-ULK1 (14202, Cell signaling), anti-ULK1 (8054, Cell signaling), anti-TFEB (852501, Biolegend), and anti-GAPDH (Cell signaling) overnight at 4° C.

primary cortical neurons = test: Western blot of primary cortical neurons; assay type: cell-based, ICR mice
Description: as §2

5XFAD mice [2] = test: Immunofluorescence of active caspase 3, LC3 and LAMP1 in cortex layer V; assay type: in vivo; conditions: 5XFAD mice cortex
Description: as §1
Brains were dissected and analyzed by immunohistochemistry. For paraffin sections, brain hemispheres were embedded sagittally in paraffin and prepared into sections of […] slices. […] The sections were counterstained with DAPI. […] NeuN-positive and active caspase 3-positive cells from cortex layer V were counted using Icy micromanager program (Institut Pasteur, Paris, France).

5XFAD mice [3] = conditions: 8-month old 5XFAD mice
[4] = SH-SY5Y cells treated with Aβ1-42
[5] = SH-SY5Y cells, in the presence of Aβ1-42 oligomers

## CC(=O)Nc1cccc(-n2c(=O)n(C3CC3)c(=O)c3c(Nc4ccc(I)cc4F)n(C)c(=O)c(C)c32)c1 [trametinib]
[1]; first week
  number of differentially expressed genes (DEGs) between vehicle and trametinib group: 500
[1]; fourth week
  number of differentially expressed genes (DEGs) between vehicle and trametinib group: 538
[1]; second week
  number of differentially expressed genes (DEGs) between vehicle and trametinib group: 498
[1]; third week
  number of differentially expressed genes (DEGs) between vehicle and trametinib group: 446
SH-SY5Y cells; [4]
  increase of LC3-II/LC-I level compared to Aβ1-42 treated alone cells: 65%
  increase of mature cathepsin B level compared to Aβ1-42 treated alone cells: 44%
SH-SY5Y cells; [5]
  nuclear translocation of TFEB: induced nuclear translocation of TFEB
  p62 as a marker of autophagic flux: Degradation of p62
  phosphorylation of mTOR and ULK1 on Ser758: inhibited the phosphorylation
Primary cortical neurons; 100 nM, co-treated with Aβ1-42
  decrease of p-mTOR/mTOR ratio compared to Aβ1-42 treated alone group: 67%
Primary cortical neurons; co-treated with Aβ1-42
  decrease of pULK1(S757) to total ULK1 ratio compared to Aβ1-42 treated alone neurons: 29%
Primary cortical neurons; primary cortical neurons
  increase of mature cathepsin B level compared to vehicle treated control (CTL): 54%
Primary cortical neurons; primary cortical neurons treated with Aβ1-42 oligomers
  increase of mature cathepsin B level compared to Aβ1-42 treated alone group: 73%
5XFAD mice [2]
  LC3-LAMP1 co-stained cells: Increased LC3-LAMP1 co-stained cells
  apoptosis (active caspase 3): reduced apoptosis
5XFAD mice [3]; 0.05 mg/kg/day
  MBP levels: restored back to levels comparable to that of wild type mice
5XFAD mice [3]; 0.1 mg/kg/day
  MBP levels: restored back to levels comparable to that of wild type mice

— patent US20220265657A1, “ADMINISTRATION METHOD AND DOSAGE REGIMEN FOR TREATMENT OF NEURODEGENERATIVE DISEASES USING TRAMETINIB AND MARKERS” (GENUV INC., priority 2019, published 2022)
